Key:
[1] = test system: neuronal damage from ischemia; settings: in vitro and in vivo; cited from earlier work
[2] = test system: Neuronal/Glial Cortical Cultures; experiment: Hypoxia-induced lactate dehydrogenase release (cell injury) in neuronal/glial cortical cultures; format: cell-based, rat (Sprague Dawley); settings: Rattus norvegicus, read-out: % Inh (percent inhibition of the release of lactate dehydrogenase in comparison to hypoxic control cultures)
Protocol: An assay was conducted to compare the inhibitory action of various compounds which are the subject of the present invention. The assay measured the oxygen deprivation-induced neuronal cell death from various cortical cultures. Lactate dehydrogenase (LDH) is a cytosolic enzyme that is only present in the extracellular medium if cell membranes rupture, indicating cell death. Therefore, LDH release into the culture medium is a convenient assay of cell death. The results of Table 3 indicate that each of the compounds tested decreased neuronal cell death from hypoxia in vitro.
The uteri of Sprague Dawley rats in their 18th day of fetal gestation were removed under halothane anesthesia and placed in a chilled bath of magnesium and calcium-free Hank's balanced salt solution (HBSS). Cortical brain hemispheres were removed from individual fetuses and digested in 0.1% trypsin in HBSS for 15 minutes at room temperature. Digested tissue was washed three times with HBSS then dissociated into a single cell suspension by trituration with a glass pipette. […] One hundred microliters of this cell suspension was pipetted into individual wells of 96-well tissue culture plates previously coated with poly-L-lysine, then stored in a humidified incubator (37° C., 3% CO2). Glial cell growth was stopped by the addition of 100 μL of 45% DME, 45% HAM F12, and 10% Horse serum (10/0 DME/F12) containing 15 μg/mL of 5-fluoro-2-deoxyuridine and 35 μg/mL of uridine, 3 days after the initial plating. Cultures were fed at 2- or 3-day intervals thereafter by replacing 100 μL of spent medium with an identical volume of fresh 10/0 DME/F12.
Sixteen-day-old cultures were prepared for experiments by removing growth medium from each culture well and rinsing once with 250 μL of Mg^++ -free HBSS containing 1.8 mM Ca^++ and 1 g/L D-glucose (0 Mg-HBSS) Control and test agent solutions, prepared using 0 Mg-HBSS medium, were dispensed in 50 μL aliquots into individual test wells (Total volume/well=50 μL). All liquid medium preparations to this point were equilibrated with […], 5% CO2. Plates were placed into a 37° C., humidified, triple-gas incubator with O2 and CO2 levels maintained at 1% and 10%, respectively. Plates were removed after 7.5 hours of oxygen deprivation and restored to normoxic conditions (20% O2 /10% CO2, 37° C.) following a 50 μL addition to each well of appropriate control or test agent solutions containing 1.8 mM Ca^++, 1.6 mM Mg^++, and 7.0 g/L D-glucose. Final medium concentrations of 1.8 mM Ca^++, 0.8 mM Mg^++, and 4 g/L D-glucose were present during the reoxygenation period.
Medium concentrations of lactate dehydrogenase (LDH), a cytosolic enzyme normally retained by cells but released upon cell death, were determined for each well following an additional 16.5-hour normoxic exposure period. Individual 25 μL medium specimens were collected from each well and placed into wells of a clean 96-well microtiter plate containing 225 μL of 0.1 M KPO4 buffer (pH=7.5 at 25° C.) and 30 μg NADH (reduced […] adenine dinucleotide). After 10-minute incubation at 37° C., 30 μL of 2.4 mM sodium pyruvate was added to each well and plates were gently shaken to mix solution. Plates were immediately placed into a Multiscan MCC/340 plate reader and scanned for […] (excitation at 340 nm) for 1 minute at 5-second intervals. A kinetic analysis of the change in medium absorbance resulting from shifts in NADH concentrations was used, in combination with factors to correct for temperature, light path, and volume adjustments to determine medium LDH concentrations (IU/mL). Normoxic control baseline LDH levels were subtracted from both hypoxic control and test agent values prior to determining test agent effectiveness in preventing oxygen deprivation-induced injury.

Hippocampal Slices = experiment: Recovery of synaptic activity (EPSP) in hippocampal slices after hypoxia-hypoglycemia (Example 4); format: cell-based, rat (male Wistar)
Protocol: Young male Wistar rats (150 to 250 g) were anesthetized with ketamine (200 mg/kg IP) and ether and were perfused transcardially with cold, oxygenated, low sodium-containing physiological buffer solution (252 mM sucrose, 3.5 mM KCl, 1.0 mM MgSO4, 20 mM CaC1, 26 mM NaHCO3, 1.25 mM NaH2 PO4, and 10 mM glucose) with 50 μM ketamine added. Brains were removed and hippocampi carefully excised. Hippocampi were sliced transversely at 450 μm and transferred into cold (4° C.) low-sodium buffer solution gassed with 95% O2, 5% CO2 at 31° C. After 45 minutes slices were transferred to oxygenated normal physiological solution (126 mM NaCl, 3.5 mM KCl, 1.0 mM MgSO4, 2.0 mM CaCl2, 20 mM NaHCO3, 1.25 mM NaH2 PO4, and 10 mM glucose) at 31° C. for at least 1 hour before experiments began. After preincubation, slices were transferred to a heated (36° C.), gassed incubation chamber where they were continuously superfused with gassed normal physiological solution. Evoked extracellular synaptic potentials (EPSPs) were obtained using glass micropipettes placed approximately 100 μm into the slice. Electrical stimulation was applied once per minute to the stratum radiatum by insulated paired nichrome wires (60 μm diameter). Stimuli consisted of 150 μA pulses lasting 0.4 msec. […] Data from a slice were used only if EPSP amplitude was greater than 2.0 mV before hypoxia-hypoglycemia.
Evoked potentials were recorded and analyzed with a digital computer interface. Experiments were started by recording for several minutes under normal conditions (95% O2, 5% CO2, 10 mM glucose). Then drug was added to the superfusion solution (or normal solution was continued in control experiments). After 10 minutes of drug superfusion, hypoxia-hypoglycemia was induced by switching to superfusion solution containing added drug with low glucose (2 mM) that was equilibrated with 95% N2 and 5% CO2. At the same time the slice chamber gas was switched to 95% N2 and 5% CO2. Hypoxia-hypoglycemia was continued for 12 minutes. After 12 minutes, 95% O2 and 10 mM glucose were returned to the slices and the superfusing solution. Following 15 minutes of reoxygenation, the experiment was ended. EPSPs were considered recovered if they returned to at least half of their original amplitude. The percentage of slices with recovered EPSPs were calculated for each condition.
This study was identical in design to Example 3 except that during the hypoxic period of 12 minutes, glucose was reduced from 10 mM to 2 mM rather than from 10 mM to zero as in Example 3.

calcium channels = settings: concentrations similar to those tested; cited from earlier work
[3] = test system: neuroprotective capabilities; experiment: Neuroprotective capabilities in vitro (general statement); format: cell-based

O=C1NC(=O)C(c2ccccc2)(c2ccccc2)N1 [Phenytoin, phenytoin]
effect on neuronal damage from ischemia [1]: preventing neuronal damage from ischemia both in vitro and in vivo
inhibition at 30 µM ([2]; 30 μM): 78%
inhibition at 100 µM ([2]; 100 μM): 82%
Number Slices Recovered / Number Slices Tested (≥50% EPSP amplitude recovery after reoxygenation) (Hippocampal Slices; 5 μM): 0/8
Number Slices Recovered / Number Slices Tested (≥50% EPSP amplitude recovery after reoxygenation) (Hippocampal Slices; 20 μM): 5/12
Number Slices Recovered / Number Slices Tested (≥50% EPSP amplitude recovery after reoxygenation) (Hippocampal Slices; 50 μM): 3/9
recovery of EPSPs, overall effect (Hippocampal Slices; concentrations tested in Table 2): enhanced recovery of EPSPs
action on calcium channels (calcium channels): blocks a variety of calcium channels
neuroprotective capabilities [3]: shown in vitro to have neuroprotective capabilities
